Key:
Assay in all cases: SILAC RP-ABPP
Assay type in all cases: cell-based
[1] = molecular target: T1, SELENBP1 Seleniumbinding protein 1 (Q13228) (Homo sapiens, UniProt Q13228); conditions: SILAC H/L, MDA-MB-231
T1 construct: endogenous in cells; host or cells: HEK293T or MDA-MB-231
Procedure: (§1) For MS-based experiments, labelling was performed in a similar manner as described above in Example 2, maintaining the same concentrations of probes. Modifications to this protocol included using isotopically ‘light’ and ‘heavy’ SILAC cells that were also grown to near complete confluence prior to treatment. Isotopically light cells were treated with the non-clickable hydrazine probe (at the same concentration as the probe in ‘enrichment’ experiments) or the probe in the presence of 10-fold excess non-clickable hydrazine probe as a competitor (in ‘competition’ experiments). Isotopically heavy cells were treated with the probe for both types of experiments. These treatments were performed in non-SILAC media. Following treatments, cells were washed with cold PBS to remove the probe-containing media, harvested by scraping, collected by centrifugation (1,400 g, 3 min, 4° C.), washed again by resuspension in cold PBS and frozen as pellets at −80° C. until use.
(§2) The fractionated equimolar mixture of heavy and light soluble proteomes (1-1.5 mg) was diluted to 1 mL in PBS. Click reactions were scaled accordingly (except for biotin-azide) to maintain final concentrations of 0.1 mM TBTA, 1 mM CuSO4, 100 μM biotin-azide (10 mM in DMSO) and 1 mM TCEP. The mixture was vortexed and placed on a rotator at ambient temperature for 1 hour. Sequential addition of and mixture with pre-chilled methanol (MeOH, 2 mL), chloroform (CHCl3, 0.5 mL) and PBS (1 mL) on ice quenched the reaction. The precipitated proteome was centrifuged (5,000 g, 10 min, 4° C.) to fractionate the protein interphase from the organic and aqueous solvent layers. The protein pellet was washed with cold 1:1 MeOH:CHCl3 (3×1 mL), mildly sonicated in cold 4:1 MeOH:CHCl3 (2.5 mL) and pelleted once more by centrifugation (5,000 g, 10 min, 4° C.) to ensure click reagents were efficiently removed.
(§3) Heavy and light parent ion chromatograms associated with successfully identified peptides were extracted and compared using CIMAGE software as previously described^69. At least one ion of a co-eluting heavy-light pair must be accurately identified from a fragmentation event that occurred within the retention time window (±10 min) of parent ion elution. To ensure that the correct pair of peaks is quantified, chromatograms are extracted within a 10 ppm error tolerance of the predicted m/z, the signal-to-noise ratio must be >2.5 and the ‘co-elution correlation score’ and ‘envelope correlation score’ must have R^2 values ≥0.8. In addition, peptides detected as ‘singletons,’ where only the heavy ion of a peptide pair was identified, but for which passed all other filtering parameters, are given a default assigned ratio of ‘20,’ which is defined as any measured ratio that is ≥20.
(§4) To further eliminate false positives and any stochastic variability in the data, protein ratios were then determined by the median peptide ratio derived from three or more unique quantified peptides. Protein ratios that complied with these criteria from a single experiment were then averaged with ratios acquired from ≥3 replicates to provide final values for each type of experiment in both cell lines with both probes. […] Most importantly, there are no robustly measured ratios for proteins identified as probe 1 targets that had measured ratios of ˜1 with probe 2. Probe targets in HEK293T and MDA-MB-231 cells represent data combined from ≥3 independent biological replicates with each cell type performed with several independent batches of synthesized probes over a period of almost two years.
(§5) Analogous experiments were also performed with the aryl hydrazine probe 2 (1 mM, 0.5 hour), which furnished a larger list of high-reactivity proteins (33 in total; Table 3) that contained several of the targets of probe 1 (compared in Table 4), as well as additional proteins that may reflect an expanded chemical reactivity for probe 2.

[2] = molecular target: T2, PLBD2 Putative phospholipase Blike 2 (Q8NHP8) (Homo sapiens, UniProt Q8NHP8); conditions: SILAC H/L, MDA-MB-231
T2 construct: endogenous in cells; host or cells: HEK293T or MDA-MB-231
T2 sequence (Q8NHP8 42-589): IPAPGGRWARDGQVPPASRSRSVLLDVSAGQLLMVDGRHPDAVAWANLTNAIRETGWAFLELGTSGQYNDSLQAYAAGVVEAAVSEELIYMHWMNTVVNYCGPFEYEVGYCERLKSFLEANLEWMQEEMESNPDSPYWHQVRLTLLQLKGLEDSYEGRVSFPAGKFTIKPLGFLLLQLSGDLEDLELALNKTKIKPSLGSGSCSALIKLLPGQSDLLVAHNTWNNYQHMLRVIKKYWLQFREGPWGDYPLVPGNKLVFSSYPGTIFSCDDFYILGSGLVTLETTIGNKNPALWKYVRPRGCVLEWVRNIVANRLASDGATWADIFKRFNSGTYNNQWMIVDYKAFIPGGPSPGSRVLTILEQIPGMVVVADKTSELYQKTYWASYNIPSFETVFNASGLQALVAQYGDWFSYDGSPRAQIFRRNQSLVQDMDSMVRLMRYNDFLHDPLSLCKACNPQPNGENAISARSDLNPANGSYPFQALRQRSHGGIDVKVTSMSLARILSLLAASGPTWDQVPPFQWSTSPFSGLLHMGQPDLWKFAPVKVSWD
Procedure: as §1, §2, §3, §4, §5

[3] = molecular target: T3, CAT Catalase (P04040) (Homo sapiens, UniProt P04040); conditions: SILAC H/L, MDA-MB-231
T3 construct: endogenous in cells; host or cells: HEK293T or MDA-MB-231
T3 sequence (P04040 whole entry): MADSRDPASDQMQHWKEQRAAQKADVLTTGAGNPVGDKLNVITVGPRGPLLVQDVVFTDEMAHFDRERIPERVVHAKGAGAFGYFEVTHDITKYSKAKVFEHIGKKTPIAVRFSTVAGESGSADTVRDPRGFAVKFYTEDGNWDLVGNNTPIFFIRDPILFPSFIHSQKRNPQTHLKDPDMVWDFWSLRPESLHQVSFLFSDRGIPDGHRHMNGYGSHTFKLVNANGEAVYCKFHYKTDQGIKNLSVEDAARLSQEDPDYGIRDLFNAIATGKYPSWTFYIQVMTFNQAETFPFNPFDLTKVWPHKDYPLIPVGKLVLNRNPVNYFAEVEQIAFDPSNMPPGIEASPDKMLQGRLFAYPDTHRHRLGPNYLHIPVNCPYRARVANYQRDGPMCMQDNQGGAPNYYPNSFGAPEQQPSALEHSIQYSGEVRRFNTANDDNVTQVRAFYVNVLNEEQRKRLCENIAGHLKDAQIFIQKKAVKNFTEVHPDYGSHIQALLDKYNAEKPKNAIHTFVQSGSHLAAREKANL
Procedure: as §1, §2, §3, §4, §5

[4] = molecular target: T4, CYP51A1 Lanosterol 14alpha demethylase (Q16850) (Homo sapiens, UniProt Q16850); conditions: SILAC H/L, HEK293T
T4 construct: In Situ Labelling of Cells with Hydrazine Probes for MS Experiments; endogenous in cells; host or cells: HEK293T and/or MDA-MB-231
T4 sequence (Q16850 whole entry): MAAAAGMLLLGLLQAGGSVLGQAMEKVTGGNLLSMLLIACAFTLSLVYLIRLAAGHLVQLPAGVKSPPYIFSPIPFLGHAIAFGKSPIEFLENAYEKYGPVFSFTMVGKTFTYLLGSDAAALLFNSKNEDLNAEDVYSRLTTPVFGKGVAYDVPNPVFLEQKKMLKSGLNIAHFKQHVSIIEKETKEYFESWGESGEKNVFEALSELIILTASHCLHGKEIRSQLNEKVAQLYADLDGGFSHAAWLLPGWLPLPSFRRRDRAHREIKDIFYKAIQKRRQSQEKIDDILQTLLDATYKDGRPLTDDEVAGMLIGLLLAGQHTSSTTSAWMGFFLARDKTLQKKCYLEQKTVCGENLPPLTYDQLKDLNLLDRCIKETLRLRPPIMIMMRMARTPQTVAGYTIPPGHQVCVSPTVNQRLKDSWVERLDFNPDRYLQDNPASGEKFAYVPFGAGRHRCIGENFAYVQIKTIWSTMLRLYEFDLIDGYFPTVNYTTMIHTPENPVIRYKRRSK
Procedure: as §1, §2, §3, §4, §5

[5] = molecular target: T5, XPNPEP3 Probable XaaPro aminopeptidase 3 (Q9NQH7) (Homo sapiens, UniProt Q9NQH7); conditions: SILAC H/L, HEK293T
T5 construct: In Situ Labelling of Cells with Hydrazine Probes for MS Experiments; endogenous in cells; host or cells: HEK293T and/or MDA-MB-231
Procedure: as §1, §2, §3, §4, §5

[6] = molecular target: T6, TTC38 Tetratricopeptide repeat protein 38 (Q5R3I4) (Homo sapiens, UniProt Q5R3I4); conditions: SILAC H/L, HEK293T
T6 construct: In Situ Labelling of Cells with Hydrazine Probes for MS Experiments; endogenous in cells; host or cells: HEK293T and/or MDA-MB-231
Procedure: as §1, §2, §3, §4, §5

[7] = molecular target: T7, PHYHD1 PhytanoylCoA dioxygenase (Q5SRE7) (Homo sapiens, UniProt Q5SRE7); conditions: SILAC H/L, MDA-MB-231
T7 construct: In Situ Labelling of Cells with Hydrazine Probes for MS Experiments; endogenous in cells; host or cells: HEK293T and/or MDA-MB-231
T7 sequence (Q5SRE7 whole entry): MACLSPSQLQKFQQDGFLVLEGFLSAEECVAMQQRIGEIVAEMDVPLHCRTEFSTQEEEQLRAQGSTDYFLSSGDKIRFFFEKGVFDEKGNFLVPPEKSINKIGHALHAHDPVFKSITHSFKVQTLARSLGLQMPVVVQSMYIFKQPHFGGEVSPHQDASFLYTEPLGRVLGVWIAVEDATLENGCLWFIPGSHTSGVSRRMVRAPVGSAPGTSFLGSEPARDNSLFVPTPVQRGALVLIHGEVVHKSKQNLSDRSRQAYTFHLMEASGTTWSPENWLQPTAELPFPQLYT
Procedure: as §1, §2, §3, §4, §5

[8] = molecular target: T8, PLOD2 Procollagenlysine, 2oxoglutarate (O00469) (Homo sapiens, UniProt O00469); conditions: SILAC H/L, MDA-MB-231
T8 construct: endogenous in cells; host or cells: HEK293T or MDA-MB-231
Procedure: as §1, §2, §3, §4, §5

[9] = molecular target: T9, FTL Ferritin light chain (P02792) (Homo sapiens, UniProt P02792); conditions: SILAC H/L, MDA-MB-231
T9 construct: endogenous in cells; host or cells: HEK293T or MDA-MB-231
T9 sequence (P02792 2-175): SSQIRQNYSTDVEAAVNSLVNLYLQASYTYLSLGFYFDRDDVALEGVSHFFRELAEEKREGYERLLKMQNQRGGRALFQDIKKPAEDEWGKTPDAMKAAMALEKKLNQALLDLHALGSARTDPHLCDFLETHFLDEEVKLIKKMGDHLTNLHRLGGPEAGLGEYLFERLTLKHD
Procedure: as §1, §2, §3, §4, §5

[10] = molecular target: T10, RAB14 Rasrelated protein Rab14 (P61106) (Homo sapiens, UniProt P61106); conditions: SILAC H/L, MDA-MB-231
T10 construct: endogenous in cells; host or cells: HEK293T or MDA-MB-231
T10 sequence (P61106 whole entry): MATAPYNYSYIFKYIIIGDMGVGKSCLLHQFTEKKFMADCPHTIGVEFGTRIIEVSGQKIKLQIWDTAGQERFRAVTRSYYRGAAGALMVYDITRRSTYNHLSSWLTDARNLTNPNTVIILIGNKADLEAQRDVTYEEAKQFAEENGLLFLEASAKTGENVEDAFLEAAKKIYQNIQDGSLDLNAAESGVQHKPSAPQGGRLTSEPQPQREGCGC
Procedure: as §1, §2, §3, §4, §5

[11] = molecular target: T11, ACOX1 Peroxisomal acylcoenzyme A oxidase 1 (Q15067) (Homo sapiens, UniProt Q15067); conditions: SILAC H/L, HEK293T
T11 construct: In Situ Labelling of Cells with Hydrazine Probes for MS Experiments; endogenous in cells; host or cells: HEK293T and/or MDA-MB-231
T11 sequence (Q15067 whole entry): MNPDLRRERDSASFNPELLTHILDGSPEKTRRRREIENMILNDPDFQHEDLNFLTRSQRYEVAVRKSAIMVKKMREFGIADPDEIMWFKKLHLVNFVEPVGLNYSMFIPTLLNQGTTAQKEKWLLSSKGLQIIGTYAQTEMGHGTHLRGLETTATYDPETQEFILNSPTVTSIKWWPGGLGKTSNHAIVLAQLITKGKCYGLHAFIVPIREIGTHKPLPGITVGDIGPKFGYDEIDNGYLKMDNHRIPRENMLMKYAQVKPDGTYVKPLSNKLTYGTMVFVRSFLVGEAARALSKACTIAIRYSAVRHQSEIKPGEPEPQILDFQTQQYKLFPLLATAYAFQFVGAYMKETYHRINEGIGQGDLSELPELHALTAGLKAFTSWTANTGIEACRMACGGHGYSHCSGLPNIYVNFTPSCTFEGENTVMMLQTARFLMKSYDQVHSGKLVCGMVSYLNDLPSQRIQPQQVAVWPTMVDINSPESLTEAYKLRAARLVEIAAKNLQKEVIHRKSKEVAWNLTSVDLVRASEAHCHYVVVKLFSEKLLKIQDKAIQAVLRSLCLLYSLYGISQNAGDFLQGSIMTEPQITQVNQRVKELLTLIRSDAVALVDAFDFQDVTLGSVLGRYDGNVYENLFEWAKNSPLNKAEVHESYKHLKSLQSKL
Procedure: as §1, §2, §3, §4, §5

[12] = molecular target: T12, FADS2 Fatty acid desaturase 2 (O95864) (Homo sapiens, UniProt O95864); conditions: SILAC H/L, HEK293T
T12 construct: In Situ Labelling of Cells with Hydrazine Probes for MS Experiments; endogenous in cells; host or cells: HEK293T and/or MDA-MB-231
T12 sequence (O95864 whole entry): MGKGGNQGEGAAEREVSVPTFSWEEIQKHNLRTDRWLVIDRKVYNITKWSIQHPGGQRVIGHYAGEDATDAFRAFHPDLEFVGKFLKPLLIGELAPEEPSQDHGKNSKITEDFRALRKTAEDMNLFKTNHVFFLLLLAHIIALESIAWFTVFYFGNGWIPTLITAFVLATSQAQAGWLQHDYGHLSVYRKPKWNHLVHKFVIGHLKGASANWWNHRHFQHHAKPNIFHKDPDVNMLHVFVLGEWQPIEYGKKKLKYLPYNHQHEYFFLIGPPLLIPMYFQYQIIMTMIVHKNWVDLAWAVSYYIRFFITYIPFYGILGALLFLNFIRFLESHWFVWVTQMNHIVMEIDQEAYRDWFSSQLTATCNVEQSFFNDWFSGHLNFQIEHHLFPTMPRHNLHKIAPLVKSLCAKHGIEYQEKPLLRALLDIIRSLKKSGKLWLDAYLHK
Procedure: as §1, §2, §3, §4, §5

[13] = molecular target: T13, ALKBH1 Alkylated DNA repair protein alkB (Q13686) (Homo sapiens, UniProt Q13686); conditions: SILAC H/L, HEK293T
T13 construct: In Situ Labelling of Cells with Hydrazine Probes for MS Experiments; endogenous in cells
T13 sequence (Q13686 whole entry): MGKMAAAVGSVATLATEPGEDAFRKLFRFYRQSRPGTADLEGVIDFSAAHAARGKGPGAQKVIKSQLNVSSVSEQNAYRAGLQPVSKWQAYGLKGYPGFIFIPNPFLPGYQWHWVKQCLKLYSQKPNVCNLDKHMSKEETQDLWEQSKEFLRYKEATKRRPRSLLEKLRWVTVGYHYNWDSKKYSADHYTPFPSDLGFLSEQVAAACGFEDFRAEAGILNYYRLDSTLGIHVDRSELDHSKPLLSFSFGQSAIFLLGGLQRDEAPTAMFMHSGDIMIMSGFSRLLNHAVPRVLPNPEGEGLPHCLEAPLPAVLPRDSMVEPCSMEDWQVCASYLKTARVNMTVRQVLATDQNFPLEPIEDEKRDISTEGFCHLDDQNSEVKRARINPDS
Procedure: as §1, §2, §3, §4, §5

[14] = molecular target: T14, RRM2 Ribonucleosidediphosphate reductase (P31350) (Homo sapiens, UniProt P31350); conditions: SILAC H/L, HEK293T
T14 construct: In Situ Labelling of Cells with Hydrazine Probes for MS Experiments; endogenous in cells; host or cells: HEK293T and/or MDA-MB-231
T14 sequence (P31350 whole entry): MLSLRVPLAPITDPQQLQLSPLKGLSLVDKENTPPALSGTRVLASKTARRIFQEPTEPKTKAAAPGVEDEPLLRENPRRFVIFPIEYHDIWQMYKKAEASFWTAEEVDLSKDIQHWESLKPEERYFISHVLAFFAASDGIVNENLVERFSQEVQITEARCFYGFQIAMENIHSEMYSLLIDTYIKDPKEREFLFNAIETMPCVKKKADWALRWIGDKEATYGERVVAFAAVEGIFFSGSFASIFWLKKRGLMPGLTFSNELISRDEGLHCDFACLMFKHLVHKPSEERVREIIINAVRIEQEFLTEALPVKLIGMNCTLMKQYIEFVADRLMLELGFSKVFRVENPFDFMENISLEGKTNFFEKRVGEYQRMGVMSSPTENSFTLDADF
Procedure: as §1, §2, §3, §4, §5

T1 sequence (Q13228 whole entry): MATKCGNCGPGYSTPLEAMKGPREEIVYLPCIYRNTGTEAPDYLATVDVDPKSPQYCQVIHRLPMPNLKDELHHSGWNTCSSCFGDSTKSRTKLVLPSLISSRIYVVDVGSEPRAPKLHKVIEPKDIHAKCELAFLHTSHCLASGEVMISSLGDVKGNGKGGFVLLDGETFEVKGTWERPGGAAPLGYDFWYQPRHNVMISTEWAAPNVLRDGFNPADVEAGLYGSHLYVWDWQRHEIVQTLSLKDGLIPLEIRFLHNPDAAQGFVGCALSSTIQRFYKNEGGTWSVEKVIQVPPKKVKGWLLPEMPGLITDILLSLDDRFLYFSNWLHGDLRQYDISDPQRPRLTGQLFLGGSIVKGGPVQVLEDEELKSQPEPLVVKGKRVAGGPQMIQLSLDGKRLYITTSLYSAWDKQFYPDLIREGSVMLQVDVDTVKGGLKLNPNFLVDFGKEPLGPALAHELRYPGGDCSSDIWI

C#CCCNC(=O)c1ccc(NN)cc1.Cl [probe 2, N-(but-3-yn-1-yl)-4-hydrazinylbenzamide hydrochloride]
enrichment ratioavg ([1]; probe 2 1 mM 0.5 h vs probe 4): 20 | competition ratioavg ([1]; probe 2 vs probe 2+10x probe 4): 3 | enrichment ratioavg ([2]; probe 2 1 mM 0.5 h vs probe 4): 9 | competition ratioavg ([2]; probe 2 vs probe 2+10x probe 4): 3 | enrichment ratioavg ([3]; probe 2 1 mM 0.5 h vs probe 4): 20 | competition ratioavg ([3]; probe 2 vs probe 2+10x probe 4): 1 | enrichment ratioavg ([4]; probe 2 1 mM 0.5 h vs probe 4): 14 | competition ratioavg ([4]; probe 2 vs probe 2+10x probe 4): 6 | enrichment ratioavg ([5]; probe 2 1 mM 0.5 h vs probe 4): 20 | competition ratioavg ([5]; probe 2 vs probe 2+10x probe 4): 4 | enrichment ratioavg ([6]; probe 2 1 mM 0.5 h vs probe 4): 14 | competition ratioavg ([6]; probe 2 vs probe 2+10x probe 4): 2 | enrichment ratioavg ([7]; probe 2 1 mM 0.5 h vs probe 4): 14 | competition ratioavg ([7]; probe 2 vs probe 2+10x probe 4): 5 | enrichment ratioavg ([8]; probe 2 1 mM 0.5 h vs probe 4): 6 | competition ratioavg ([8]; probe 2 vs probe 2+10x probe 4): 2 | enrichment ratioavg ([9]; probe 2 1 mM 0.5 h vs probe 4): 7 | competition ratioavg ([9]; probe 2 vs probe 2+10x probe 4): 3 | enrichment ratioavg ([10]; probe 2 1 mM 0.5 h vs probe 4): 5 | competition ratioavg ([10]; probe 2 vs probe 2+10x probe 4): 3 | enrichment ratioavg ([11]; probe 2 1 mM 0.5 h vs probe 4): 19 | competition ratioavg ([11]; probe 2 vs probe 2+10x probe 4): 2 | enrichment ratioavg ([12]; probe 2 1 mM 0.5 h vs probe 4): 20 | competition ratioavg ([12]; probe 2 vs probe 2+10x probe 4): 4 | enrichment ratioavg ([13]; probe 2 1 mM 0.5 h vs probe 4): 20 | competition ratioavg ([13]; probe 2 vs probe 2+10x probe 4): 8 | enrichment ratioavg ([14]; probe 2 1 mM 0.5 h vs probe 4): 13 | competition ratioavg ([14]; probe 2 vs probe 2+10x probe 4): 1

Source: patent publication US11226337B2, “Chemoproteomic profiling of protein electrophilic and oxidative post-translational modifications” (Zenagem, LLC, priority 2017, dated 2022)
